Tested on: PrP^C overexpression-induced cofilactin rods in rat hippocampal neurons

C[C@H](O)[C@@H](N)C(=O)N[C@@H](C(=O)N[C@H](CC(N)=O)C(=O)N[C@H](Cc1ccc(O)cc1)C(=O)N[C@@H](C(=O)O)[C@H](C)O)[C@H](C)O [RAP-103]
Rod formation induced by PrP^C overexpression, 4-day treatment: blocked
Rod formation induced by PrP^C overexpression, treatment for last day only: reversed
